Test results reported in US4696920A, “Certain 2-substituted 1,3-propylidenediphosphonate derivatives, pharmaceutical compositions containing them and their use as antihypertensive agents” (priority 1984, dated 1987).
Entries after “also recorded” stand apart in the source; their conditions may differ.

Legend:
[1] = test system: calcium channel binding site for [^3 H]-Nitrendipine (rat brain membranes); assay: [^3 H]-Nitrendipine binding to rat brain membranes; design: species or system rat (male Wistar); conditions: for modulation of [^3 H]-Nitrendipine binding (in words) / Specifically bound [^3 H]-Nitrendipine % of control value / Bound ^3 H at 1.0 μM / Bound ^3 H at 0.1 μM: Table 1a; for Specifically bound [^3 H]-Nitrendipine % of control value: compound concentration 1.0 μM; for Bound ^3 H at 1.0 μM / Bound ^3 H at 0.1 μM: ratio of [^3 H]-Nitrendipine bound at 1.0 and 0.1 μM compound
Description: (§1) Diltiazem hydrochloride was a generous gift from Goedecke A. G.
Suitable dilutions were made in 50 mM Tris-HCl buffer (pH 7.4) containing 150 mM NaCl and 1 mM CaCl2. The ethanol concentration in the final assay never exceeded 0.1%.
(§2) The purity of the radioligand and of the various agents tested was monitored by thin layer chromatography on silica gel plates.
(§3) The following procedure was adapted from Bellemann et al (Proc. Nat. Acad. Sci. 80, 2356, 1983), and Gould et al (Proc. Nat. Acad. Sci. 79, 3656, 1982).
(§4) Adult male Wistar rats weighing 250-300 g were anesthetized with carbon dioxide prior to decapitation. The brain was removed then immersed in ice-cold 0.32M sucrose and washed 2-3 times with fresh solution. Cerebral cortex was minced and homogenized (Potter-Elvehjem homogenizer) in 10 volumes of ice-cold sucrose solution. The homogenate was centrifuged (4° C.) at 1000×g for 15 minutes. The resulting supernatant was then centrifuged at 90000×g (30 minutes) and the pellet was washed twice with 20 ml ice-cold 50 mM Tris-HCl pH 7.4.
(§5) The final pellet was resuspended in 50 mM Tris-HCl pH 7.4/150 mM NaCl/1 mM CaCl2 to give a protein concentration of 4 mg/ml.
(§6) The membrane suspension was kept on ice until used. Binding assays were performed in subdued light to prevent dihydropyridine breakdown. Membrane protein (400 μg/tube) was incubated in 50 mM Tris-HCl buffer (pH 7.4)/150 mM NaCl/1 mM CaCl2 with the indicated concentrations of radioligand and test compounds or known calcium antagonists, in a total volume of 2 ml. After the indicated time intervals, the reaction was terminated by rapid filtration through Whatman GF/B glass fiber filters (2.4 cm diameter) on a Millipore filter holder. The assay tube was rinsed with 2 ml ice-cold 50 mM Tris-HCl pH (7.4) and the precipitate was further washed with 2×5 ml of the same buffer.
(§7) Filters were dried under a heat lamp and were extracted with 10 ml of liquid scintillation cocktail (Toluene/Triton X-100, 2/1 containing 4 g Omnifluor/1) prior to tritium determination at 48% counting efficiency.
(§8) Assays were performed in duplicate or triplicate.
(§9) Data were expressed as percent specific [^3 H]-Nitrendipine binding relative to the established control value.
(§10) Compound activity in the [^3 H]-Nitrendipine binding assay was evaluated by using the following criteria:
(§11) 1. [^3 H]-Nitrendipine binding at 1.0 μM compound final concentration was either below 95% or above 105% of the control value determined in absence of compound.
2. […] This ratio is indicative of a dose response relationship within the compound concentration range tested, when the value differs appreciably from 1.0.

[2] = test system: rat trachea contraction induced by KCl depolarization; assay: KCl-induced rat trachea contraction; design: species or system rat (male SHR, Okamoto-Aoki); conditions: for activity at 1 µM: Rattus norvegicus, 40 min, read-out: Contraction (% max.); for activity on KCl-induced trachea contraction (in words): final concentration 1.0 μM
Description: Spontaneously hypertensive male rats (SHR) Okamoto-Aoki Strain, weighing 300-400 g were used in this study. They were killed by bleeding after Pentobarbital anesthesia (Nembutal, Abbott Co, 40 mg/kg). Their entire trachea was quickly removed and dissected free of fat and connective tissue in Krebs-Ringer solution. A strip (4 mm×40 mm), obtained by spirally cutting the trachea, was immediately suspended in a 50 ml Krebs-Ringer solution and continuously bubbled with a O2 /CO2 (95/5) mixture. Bath temperature was maintained at 37±1° C. The composition (mM) of the Krebs-Ringer solution modified by Nghiem, was as follows: NaCl, (118.0); KCl, (4.7); CaCl2, (2.5); MgCl2, (1.18); NaHCO3, (12.5); KH2 P04, (1.18); glucose, (5.5) in bidistilled water (pH 7.4). Each strip was equilibrated under initial tension (1.5-2 g) for 1-2 hours and the bath solution changed every 30 min. A contractile or relaxant response was isometrically measured with a force-displacement transducer (Ugo-Basile) and recorded on a polygraph (Beckman).
After equilibration, KCl was added to the bath at 65 mM final concentration. This concentration produced maximum trachea contraction. Under these conditions, a plateau phase showing a tonic sustained contraction was reached within 30 minutes. Drugs were added 30 minutes after the plateau phase has been reached (final concentration=1.0 μM). […] Recordings of the residual trachea contraction were made 40 minutes after drug addition to the bathing fluid. The initial KCl induced contraction was taken as the maximum KCl response (100%). Results were expressed as % of maximal contraction. Nifedipine, Prenylamine, Flunarizine and Diltiazem were used as reference standards to validate this assay.
All 1,3-diphosphonates and drugs were dissolved in saline (0.9% NaCl) except when water insoluble, then the compounds were dissolved in 2% ethanol. The final concentration of ethanol used has been shown not to interfere with the assay.
Results are expressed as mean values±SEM, the Student's t-test was used for statistical analysis.

[3] = test system: mean blood pressure in rat; assay: Acute intravenous hypotensive activity in anesthetized rats; format: in vivo, rat (male Wistar); conditions: Rattus norvegicus, iv, read-out: Decrease in mean blood pressure (% pretest)
Description: Male Wistar rats were anesthetized with Pentobarbital (Nembutal, 60 mg/kg i.p.) and heparinized (5 mg/kg i.p.). After tracheotomy the right carotid was cannulated (catheter PE 50); blood pressure was measured with a pressure transducer (Statham P 23 db) and recorded on a polygraph (Beckman).
Animals received 0.5 and 1.5 mg/kg of the test compounds. Less than 100 μl of test compounds dissolved in 0.9% saline were injected in the jugular vein. Highly water insoluble compounds were suspended in 2% Tween-80. Injection of the vehicle alone had no detectable hypotensive effect.
Results presented are expressed as percent decrease in initial mean blood pressure (Mean±SEM).

[4] = test system: isolated rat atrium (atrium rate); assay: Chronotropic activity in isolated rat atrium; design: species or system rat (male SHR, Okamoto-Aoki); conditions: 5.0 × 10^-6 M, mean ± SEM, read-out: Decrease in atrium rate (% pretest)
Description: Spontaneously hypertensive male rats (SHR) (Okamoto-Aoki strain) were anesthetized with Pentobarbital (Nembutal Abbott, 60 mg/kg, i.p.). The hearts were quickly excised and both atria were dissected free from adjacent cardiac tissues. The atria were immediatly placed in a 50 ml Krebs-Ringer bath with the following composition (mM): NaCl, (120.0); KCl, (5.63); CaCl2, (2.0); MgCl2, (2.10); NaHCO3, (25.0); Glucose, (9.7) (pH 7.4). The solution was continuously bubbled with a O2 /CO2 mixture (95/5) and maintained at 37±1° C. The atrium was fixed to an optical displacement transducer (IITC, USA) under a resting tension of 1 g in order to measure atrial rate. The preparation was allowed to equilibrate for 40 min then cumulative dose-response curves were determined for each test compound (0.5-5 μMole/l). Maximum effect was normally obtained within 30-40 min. for each concentration.
Stock solutions of the 1,3-diphosphonates were generally prepared in 0.9% saline and water insoluble compounds were prepared in 50% ethanol. […] When tested at the concentration of 5.0×10^-6 M a decrease in atrium rate of more than 5% was considered as significant.
All data are presented as % decrease of initial atrium rate (mean values±SEM). A potent negative chronotropic effect was found with all compounds tested (table 3).

[5] = test system: [^3 H]-PN-200 110 (dihydropyridine) binding site of calcium channel, rat brain membranes; assay: [^3 H]-PN-200 110 binding to rat brain membranes; design: species or system rat (male Wistar); conditions: for Specifically bound [^3 H]-PN-200 110 % of control value: compound concentration 1.0 μM; for Specifically bound [^3 H]-PN-200 110 % of control value / Bound ^3 H at 1.0 μM / Bound ^3 H at 0.1 μM: Table 1b; for Bound ^3 H at 1.0 μM / Bound ^3 H at 0.1 μM: ratio of [^3 H]-PN-200 110 bound at 1.0 and 0.1 μM compound; for potency in [^3 H]-PN200 110 binding (in words): text on Table 1b
Description: as §1
Water insoluble compounds were dissolved in absolute ethanol to give 10 mM or 2.5 mM stock solutions. Suitable dilutions were made in 50 mM Tris-HCl buffer (pH 7.4) containing 150 mM NaCl and 1 mM CaCl2. The ethanol concentration in the final assay never exceeded 0.1%.
as §2, §3, §4, §5, §6, §7, §8, §9, §10, §11
2. The ratio obtained by dividing the amount of specifically found [^3 H]-Nitrendipine at 1.0 μM compound final concentration by the value obtained at 0.1 μM test compound, was smaller than 0.9 or greater than 1.1. This ratio is indicative of a dose response relationship within the compound concentration range tested, when the value differs appreciably from 1.0.
Note: In some experiments [^3 H]-PN200 110, a new and commercially available specific dihydropyridine was used instead of [^3 H]-Nitrendipine.

[6] = test system: blood pressure in hypertensive rats; assay: Oral hypotensive activity in hypertensive rats (tail cuff); format: in vivo, rat (spontaneously hypertensive, SHR); conditions: Table 5
Description: Some selected compounds were given orally to conscious SHR rats and blood pressure was monitored using the tail cuff method. A marked and sustained hypotensive activity was measured in all treated rats. Results are given 2 hours post dose (Table 5). These studies illustrate the obvious potential use of orally administered 1,3-diphosphonates for the clinical treatment of hypertension in man.

[7] = test system: drug receptor sites associated with calcium channels; conditions: known calcium antagonists; cited from earlier work

CC(C)OP(=O)(CC(Cc1ccccc1)CP(=O)(OC(C)C)OC(C)C)OC(C)C [Compound 55, Tetraisopropyl 2-benzyl-1,3-propylidenephosphonate]
modulation of [^3 H]-Nitrendipine binding (in words) [1]: activators | Specifically bound [^3 H]-Nitrendipine % of control value [1]: 156 % of control value | Bound ^3 H at 1.0 μM / Bound ^3 H at 0.1 μM [1]: 1.292 | activity at 1 µM [2]: 73 ± 1% | activity on KCl-induced trachea contraction (in words) [2]: potent pharmacological activity | inhibition in vivo at 0.5 mg/kg [3]: 28.2 ± 0.7% | inhibition in vivo at 1.5 mg/kg [3]: 31.1 ± 6.4% | inhibition at 5 µM [4]: 17.5 ± 4.6%

CCCCOP(=O)(CC(CCOc1ccccc1)CP(=O)(OCCCC)OCCCC)OCCCC [Compound 79, Tetrabutyl 2-(2-phenoxyethyl)-1,3-propylidenediphosphonate]
modulation of [^3 H]-Nitrendipine binding (in words) [1]: strong inhibitors | Specifically bound [^3 H]-Nitrendipine % of control value [1]: 0 % of control value | Bound ^3 H at 1.0 μM / Bound ^3 H at 0.1 μM [1]: 0.000 | activity at 1 µM [2]: 60.3 ± 9.6% | activity on KCl-induced trachea contraction (in words) [2]: potent pharmacological activity | Specifically bound [^3 H]-PN-200 110 % of control value [5]: 3 % of control value | Bound ^3 H at 1.0 μM / Bound ^3 H at 0.1 μM [5]: 0.211 | oral hypotensive activity (in words) [6]: decrease blood pressure as markedly as the marketed calcium antagonists used as references

CCCCOP(=O)(CC(CCOc1ccc(F)cc1)CP(=O)(OCCCC)OCCCC)OCCCC [Compound 89]
Specifically bound [^3 H]-PN-200 110 % of control value [5]: 6 % of control value | Bound ^3 H at 1.0 μM / Bound ^3 H at 0.1 μM [5]: 0.310 | potency in [^3 H]-PN200 110 binding (in words) [5]: as potent as Nifedipine | oral hypotensive activity (in words) [6]: decrease blood pressure as markedly as the marketed calcium antagonists used as references

CCCCOP(=O)(CC(CCOc1ccc(Cl)cc1)CP(=O)(OCCCC)OCCCC)OCCCC [Compound 90]
Specifically bound [^3 H]-PN-200 110 % of control value [5]: 4 % of control value | Bound ^3 H at 1.0 μM / Bound ^3 H at 0.1 μM [5]: 0.243 | potency in [^3 H]-PN200 110 binding (in words) [5]: as potent as Nifedipine | oral hypotensive activity (in words) [6]: decrease blood pressure as markedly as the marketed calcium antagonists used as references

CCCCOP(=O)(CC(CCOc1ccc(Br)cc1)CP(=O)(OCCCC)OCCCC)OCCCC [Compound 91]
Specifically bound [^3 H]-PN-200 110 % of control value [5]: 15 % of control value | Bound ^3 H at 1.0 μM / Bound ^3 H at 0.1 μM [5]: 0.420 | oral hypotensive activity (in words) [6]: decrease blood pressure as markedly as the marketed calcium antagonists used as references

CCCCOP(=O)(CC(CCOc1ccc(OC)cc1)CP(=O)(OCCCC)OCCCC)OCCCC [Compound 92]
Specifically bound [^3 H]-PN-200 110 % of control value [5]: 0 % of control value | Bound ^3 H at 1.0 μM / Bound ^3 H at 0.1 μM [5]: 0.000 | potency in [^3 H]-PN200 110 binding (in words) [5]: as potent as Nifedipine | oral hypotensive activity (in words) [6]: decrease blood pressure as markedly as the marketed calcium antagonists used as references

CCCCOP(=O)(CC(CCOc1cccc(C(F)(F)F)c1)CP(=O)(OCCCC)OCCCC)OCCCC [Compound 93]
Specifically bound [^3 H]-PN-200 110 % of control value [5]: 0 % of control value | Bound ^3 H at 1.0 μM / Bound ^3 H at 0.1 μM [5]: 0.000 | potency in [^3 H]-PN200 110 binding (in words) [5]: as potent as Nifedipine | oral hypotensive activity (in words) [6]: decrease blood pressure as markedly as the marketed calcium antagonists used as references

CC(Cc1ccccc1)NCCC(c1ccccc1)c1ccccc1 (stereo not drawn) [Prenylamine, reference compound]
% [^3 H]-Nitrendipine bound ([1]; reference standards at 1 μM): 57% | effect on [^3 H]-Nitrendipine binding (in words) [7]: reduce [^3 H]-Nitrendipine binding affinity

COc1ccc(CCN(C)CCCC2(c3ccc(OC)c(OC)c3)S(=O)(=O)CCCS2(=O)=O)cc1OC [Tiapamil]
effect on [^3 H]-Nitrendipine binding (in words) [7]: reduce [^3 H]-Nitrendipine binding affinity

COc1ccc(CCN(C)CCCC(C#N)(c2ccc(OC)c(OC)c2)C(C)C)cc1OC (stereo not drawn) [Verapamil]
effect on [^3 H]-Nitrendipine binding (in words) [7]: inhibitors; also recorded: reduce [^3 H]-Nitrendipine binding affinity
